Reference: patent publication US20210040041A1, “QUINOLINE DERIVATIVES AND PREPARATION METHODS AND USES THEREOF” (DONGGUAN HEC PESTICIDES R&D CO., LTD., priority 2018, published 2021)

Experiments:
Type in all cases: in vivo
Armyworm [1] = test: Test examples 3: leaf dipping method, cabbage, Armyworm; conditions: after 3 days
Description: A certain amount of compound (0.0001 g) was weighed by using an analytical balance, and prepared to a mother liquid (1) with N,N-dimethylformamide containing 1% Tween-80 emulsifier, and then the other liquid was diluted with distilled water or standby.
(§1) Leaf dipping method: an appropriate amount of cabbage was infiltrated in the prepared liquid and dried in the shade naturally, and then placed in a culture dish with filter paper; Armyworm/Diamondback moth larvae in the 2-3rd instar were inoculated, 10 heads per dish, and the dishes were cultured in an observation room at 24-27° C. The results were investigated after 3 days. […] The test concentrations were 50 mg/L, 25 mg/L, 12.5 mg/L, 6.25 mg/L, 3.13 mg/L, 1.56 mg/L.

Diamondback moth = test: Test examples 2: leaf dipping method, Diamondback moth; conditions: Plutella xylostella, foliar, 72 h, after 3 days, read-out: The mortality rate (%) of the compound to Diamondback moth; for mortality at 12.5 µg/mL: 12.5 mg/L; for mortality at 25 µg/mL: 25 mg/L; for mortality at 50 µg/mL: 50 mg/L
Description: (§2) A certain amount of compound (0.0001 g) was weighed by using an analytical balance, and prepared to a mother liquid (1%) with N, N-dimethylformamide containing 1% Tween-80 emulsifier, and then the mother liquid was diluted with distilled water for standby.
as §1, with “corn leaves/cabbage/cowpea were” for “cabbage was”, “armyworm/Diamondback moth/Beet Armyworm” for “Armyworm/Diamondback moth”, “inoculated to the corn leaves,” for “inoculated,”

Armyworm [2] = test: Test examples 2: leaf dipping method, Armyworm; conditions: Mythimna separata, foliar, 72 h, after 3 days, read-out: The mortality rate (%) of the compound to Armyworm; for mortality at 12.5 µg/mL: 12.5 mg/L; for mortality at 25 µg/mL: 25 mg/L; for mortality at 50 µg/mL: 50 mg/L
Description: as §2
as §1, with “corn leaves/cabbage/cowpea were” for “cabbage was”, “armyworm/Diamondback moth/Beet Armyworm” for “Armyworm/Diamondback moth”, “inoculated to the corn leaves,” for “inoculated,”

[3] = system: Frankliniella occidentalis; test: Test examples 2: spraying of cowpea leaf discs, Frankliniella occidentalis; conditions: foliar, 24 h, after 1 day, read-out: The mortality rate (%) of the compound to Frankliniella occidentalis; for mortality at 5 µg/mL: 5 mg/L; for mortality at 10 µg/mL: 10 mg/L; for mortality at 20 µg/mL: 20 mg/L
Description: as §2
Spraying: cowpea leaves growing uniformity were punched with a punching bear to make leaf discs, leaf discs were placed onto degreased cotton blocks in a dish, two leaf discs per dish, and water was added into the dish and it was flush with the leaf discs, and the dish was for standby. Frankliniella occidentalis in the 2-3rd instar were inoculated to the ready leaf discs, more than 15 per disc. Which were spayed under Potter spray tower at a dose of 0.5 mL per treatment. The blank control was treated first, and then the above operations were repeated in the order of the test dose from low to high, with 2 repeats per treatment. After treatment, the samples were placed in the observation room, and the results were investigated 1 day later. […] The test concentrations were 20 mg/L, 10 mg/L, 5.0 mg/L, 2.5 mg/L, 1.25 mg/L, 0.625 mg/L.

Beet Armyworm = test: Test examples 2: leaf dipping method, Beet Armyworm; conditions: Spodoptera exigua, foliar, 72 h, after 3 days, read-out: The mortality rate (%) of the compound to Beet Armyworm; for mortality at 12.5 µg/mL: 12.5 mg/L; for mortality at 25 µg/mL: 25 mg/L; for mortality at 50 µg/mL: 50 mg/L
Description: as §2
as §1, with “corn leaves/cabbage/cowpea were” for “cabbage was”, “armyworm/Diamondback moth/Beet Armyworm” for “Armyworm/Diamondback moth”, “inoculated to the corn leaves,” for “inoculated,”

## 2-ethyl-3,5,7-trimethyl-6-(4-(trifluoromethoxy)phenoxy)quinolin-4-ol [compound (42)]
Armyworm [1]; 12.5 mg/L
  The mortality rate (%) to Armyworm: 80%
Armyworm [1]; 25 mg/L
  The mortality rate (%) to Armyworm: 85%
Armyworm [1]; 50 mg/L
  The mortality rate (%) to Armyworm: 95%

## CCc1nc2cc(C)c(Oc3ccc(C(C)(C)C)cc3)cc2c(OC(=O)OCCOC)c1C [Example 4, 6-(4-(tert-butyl)phenoxy)-2-ethyl-3,7-dimethylquinolin-4-yl (2-methoxyethyl)carbonate]
Diamondback moth
  mortality at 12.5 µg/mL: 90%
  mortality at 25 µg/mL: 100%
  mortality at 50 µg/mL: 100%
Armyworm [2]
  mortality at 12.5 µg/mL: 80%
  mortality at 25 µg/mL: 90%
  mortality at 50 µg/mL: 100%

## CCc1nc2cc(C)c(Oc3ccc(OC(F)(F)F)cc3)cc2c(OC(=O)OCCOCCOC)c1C [Example 7]
[3]
  mortality at 5 µg/mL: 95%
  mortality at 10 µg/mL: 100%
  mortality at 20 µg/mL: 100%
Beet Armyworm
  mortality at 12.5 µg/mL: 80%
  mortality at 25 µg/mL: 100%
  mortality at 50 µg/mL: 100%
Diamondback moth
  mortality at 12.5 µg/mL: 85%
  mortality at 25 µg/mL: 90%
  mortality at 50 µg/mL: 100%
Armyworm [2]
  mortality at 12.5 µg/mL: 100%
  mortality at 25 µg/mL: 100%
  mortality at 50 µg/mL: 100%

## CCc1nc2cc(C)c(Oc3ccc(OC(F)(F)F)cc3)cc2c(OC(=O)OCC2CCCO2)c1C (stereo not drawn) [Example 8]
[3]
  mortality at 5 µg/mL: 85%
  mortality at 10 µg/mL: 100%
  mortality at 20 µg/mL: 100%
Beet Armyworm
  mortality at 12.5 µg/mL: 70%
  mortality at 25 µg/mL: 95%
  mortality at 50 µg/mL: 100%
Diamondback moth
  mortality at 12.5 µg/mL: 93%
  mortality at 25 µg/mL: 100%
  mortality at 50 µg/mL: 100%
Armyworm [2]
  mortality at 12.5 µg/mL: 100%
  mortality at 25 µg/mL: 100%
  mortality at 50 µg/mL: 100%

## CCOCCOC(=O)Oc1c(C)c(CC)nc2cc(C)c(Oc3ccc(OC(F)(F)F)cc3)cc12 [Example 17, 2-ethoxyethyl (2-ethyl-3,7-dimethyl-6-(4-(trifluoromethoxy)phenoxy)quinolin-4-yl) carbonate]
Diamondback moth
  mortality at 12.5 µg/mL: 100%
  mortality at 25 µg/mL: 100%
  mortality at 50 µg/mL: 100%
Armyworm [2]
  mortality at 12.5 µg/mL: 100%
  mortality at 25 µg/mL: 100%
  mortality at 50 µg/mL: 100%

## CCc1nc2cc(C)c(Oc3ccc(OC(F)(F)F)cc3)c(C)c2c(OC(=O)OCCOC)c1C [Example 18, 2-ethyl-3,5,7-trimethyl-6-(4-(trifluoromethoxy)phenoxy)quinolin-4-yl (2-methoxyethyl) carbonate]
[3]
  mortality at 5 µg/mL: 100%
  mortality at 10 µg/mL: 100%
  mortality at 20 µg/mL: 100%
Beet Armyworm
  mortality at 12.5 µg/mL: 90%
  mortality at 25 µg/mL: 100%
  mortality at 50 µg/mL: 100%
Diamondback moth
  mortality at 12.5 µg/mL: 100%
  mortality at 25 µg/mL: 100%
  mortality at 50 µg/mL: 100%
Armyworm [2]
  mortality at 12.5 µg/mL: 100%
  mortality at 25 µg/mL: 100%
  mortality at 50 µg/mL: 100%

## CCc1nc2ccc(Oc3ccc(C(C)(C)C)cc3)c(C)c2c(OC(=O)OCCOC)c1C [Example 22, 6-(4-(tert-butyl)phenoxy)-2-ethyl-3,5-dimethylquinolin-4-yl (2-methoxyethyl) carbonate]
Diamondback moth
  mortality at 12.5 µg/mL: 85%
  mortality at 25 µg/mL: 90%
  mortality at 50 µg/mL: 100%
Armyworm [2]
  mortality at 12.5 µg/mL: 80%
  mortality at 25 µg/mL: 95%
  mortality at 50 µg/mL: 100%

## CCc1nc2cc(C)c(Oc3ccc(C(C)(C)C)cc3)c(C)c2c(OC(=O)OCCOC)c1C [Example 26, 6-(4-(tert-butyl)phenoxy)-2-ethyl-3,5,7-trimethylquinolin-4-yl (2-methoxyethyl) carbonate]
Diamondback moth
  mortality at 12.5 µg/mL: 85%
  mortality at 25 µg/mL: 95%
  mortality at 50 µg/mL: 100%
Armyworm [2]
  mortality at 12.5 µg/mL: 90%
  mortality at 25 µg/mL: 100%
  mortality at 50 µg/mL: 100%

## CCc1nc2ccc(Oc3ccc(C(C)(C)C)cc3)c(C)c2c(OC(=O)OCC2CCCO2)c1C (stereo not drawn) [Example 35, 6-(4-(tert-butyl)phenoxy)-2-ethyl-3,5-dimethylquinolin-4-yl ((tetrahydrofuran-2-yl)methyl) carbonate]
Diamondback moth
  mortality at 12.5 µg/mL: 80%
  mortality at 25 µg/mL: 90%
  mortality at 50 µg/mL: 100%
Armyworm [2]
  mortality at 12.5 µg/mL: 80%
  mortality at 25 µg/mL: 95%
  mortality at 50 µg/mL: 100%

## CCc1nc2cc(C)c(Oc3ccc(C(C)(C)C)cc3)c(C)c2c(OC(=O)OCC2CCCO2)c1C (stereo not drawn) [Example 36, 6-(4-(tert-butyl)phenoxy)-2-ethyl-3,5,7-trimethylquinolin-4-yl ((tetrahydrofuran-2-yl)methyl) carbonate]
Diamondback moth
  mortality at 12.5 µg/mL: 85%
  mortality at 25 µg/mL: 95%
  mortality at 50 µg/mL: 100%
Armyworm [2]
  mortality at 12.5 µg/mL: 90%
  mortality at 25 µg/mL: 100%
  mortality at 50 µg/mL: 100%

## CCc1nc2cc(C)c(Oc3ccc(OC(F)(F)F)cc3)c(C)c2c(OC(=O)OCC2CCCO2)c1C (stereo not drawn) [Example 37]
[3]
  mortality at 5 µg/mL: 95%
  mortality at 10 µg/mL: 100%
  mortality at 20 µg/mL: 100%
Beet Armyworm
  mortality at 12.5 µg/mL: 75%
  mortality at 25 µg/mL: 100%
  mortality at 50 µg/mL: 100%
Diamondback moth
  mortality at 12.5 µg/mL: 95%
  mortality at 25 µg/mL: 100%
  mortality at 50 µg/mL: 100%
Armyworm [2]
  mortality at 12.5 µg/mL: 100%
  mortality at 25 µg/mL: 100%
  mortality at 50 µg/mL: 100%

## CCc1nc2ccc(Oc3ccc(OC(F)(F)F)cc3)c(C)c2c(OC(=O)OCC2CCCO2)c1C (stereo not drawn) [Example 38]
[3]
  mortality at 5 µg/mL: 90%
  mortality at 10 µg/mL: 100%
  mortality at 20 µg/mL: 100%
Beet Armyworm
  mortality at 12.5 µg/mL: 70%
  mortality at 25 µg/mL: 100%
  mortality at 50 µg/mL: 100%
Diamondback moth
  mortality at 12.5 µg/mL: 92%
  mortality at 25 µg/mL: 100%
  mortality at 50 µg/mL: 100%
Armyworm [2]
  mortality at 12.5 µg/mL: 90%
  mortality at 25 µg/mL: 100%
  mortality at 50 µg/mL: 100%

## CCc1nc2ccc(Oc3ccc(OC(F)(F)F)cc3)c(C)c2c(OC(=O)OCCOC)c1C [Example 39, 2-ethyl-3,5-dimethyl-6-(4-(trifluoromethoxy)phenoxy)quinolin-4-yl (2-methoxyethyl) carbonate]
Diamondback moth
  mortality at 12.5 µg/mL: 100%
  mortality at 25 µg/mL: 100%
  mortality at 50 µg/mL: 100%
Armyworm [2]
  mortality at 12.5 µg/mL: 100%
  mortality at 25 µg/mL: 100%
  mortality at 50 µg/mL: 100%

## CCOCCOC(=O)Oc1c(C)c(CC)nc2cc(C)c(Oc3ccc(OC(F)(F)F)cc3)c(C)c12 [Example 40, 2-ethoxyethyl (2-ethyl-3,5,7-trimethyl-6-(4-(trifluoromethoxy)phenoxy)quinolin-4-yl) carbonate]
Diamondback moth
  mortality at 12.5 µg/mL: 95%
  mortality at 25 µg/mL: 100%
  mortality at 50 µg/mL: 100%
Armyworm [2]
  mortality at 12.5 µg/mL: 95%
  mortality at 25 µg/mL: 100%
  mortality at 50 µg/mL: 100%

## CCc1nc2cc(C)c(Oc3ccc(OC(F)(F)F)cc3)c(C)c2c(OC(=O)OCCOC(C)C)c1C [Example 41, 2-ethyl-3,5,7-trimethyl-6-(4-(trifluoromethoxy)phenoxy)quinolin-4-yl (2-isopropoxyethyl) carbonate]
Diamondback moth
  mortality at 12.5 µg/mL: 90%
  mortality at 25 µg/mL: 100%
  mortality at 50 µg/mL: 100%
Armyworm [2]
  mortality at 12.5 µg/mL: 80%
  mortality at 25 µg/mL: 100%
  mortality at 50 µg/mL: 100%
